These results are taken from the supplement of paper PMC10307832.

Holding throughout (test): relative viability (nuclei count vs DMSO), 5 days (fraction); higher = more cells survive
Compound in the assay “RO-3306 + Pemetrexed”: C1=CC2=C(C=CC(=C2)C=C3C(=O)NC(=NCC4=CC=CS4)S3)N=C1 [RO-3306] + Nc1nc2[nH]cc(CCc3ccc(C(=O)N[C@@H](CCC(=O)O)C(=O)O)cc3)c2c(=O)[nH]1 [Pemetrexed] (partner 0.2 µM)
Put shortly: (§1)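 Relative viability is defined as nuclei in treated wells over nuclei in vehicle wells. Duplicate plates were run and medians reported. Lung cancer cell lines in 1536-well plates were dosed by pin tool one day after seeding, with one drug or with a fixed anchor-drug dose plus five library-drug doses (not always all listed) in √10 steps, and nuclei were counted after 5 days.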

Compound in assay [1]: O=S(=O)(c1ccccc1)N(CC(F)(F)F)c1ccc(C(O)(C(F)(F)F)C(F)(F)F)cc1 + Nc1nc2[nH]cc(CCc3ccc(C(=O)N[C@@H](CCC(=O)O)C(=O)O)cc3)c2c(=O)[nH]1 [Pemetrexed] (partner 0.2 µM)
Put shortly: as §1

Compound in assay [2]: O=S(=O)(c1ccccc1)N(CC(F)(F)F)c1ccc(C(O)(C(F)(F)F)C(F)(F)F)cc1 + O=C(CCCCCCC(=O)Nc1ccccc1)NO [Vorinostat] (partner 1 µM)
Put shortly: as §1

Compound in assay [3]: O=S(=O)(c1ccccc1)N(CC(F)(F)F)c1ccc(C(O)(C(F)(F)F)C(F)(F)F)cc1 + NC(=O)Nc1cc(-c2cccc(F)c2)sc1C(=O)N[C@H]1CCCNC1 [AZD7762] (partner 0.2 µM)
Put shortly: as §1

Compound in assay [4]: O=S(=O)(c1ccccc1)N(CC(F)(F)F)c1ccc(C(O)(C(F)(F)F)C(F)(F)F)cc1 + Nc1ncn([C@H]2C[C@H](O)[C@@H](CO)O2)c(=O)n1 [Decitabine] (partner 2 µM)
Summed up: as §1

Compound in assay [5]: O=S(=O)(c1ccccc1)N(CC(F)(F)F)c1ccc(C(O)(C(F)(F)F)C(F)(F)F)cc1 + C[C@@H](Oc1cc(-c2cnn(C3CCNCC3)c2)cnc1N)c1c(Cl)ccc(F)c1Cl [Crizotinib] (partner 1 µM)
Put shortly:
as §1

For the cell line NCI-H1395, the relative viability with RO-3306 + Pemetrexed (first compound 0.01 µM) came to 0.678; in the assay with RO-3306 + Pemetrexed (first compound 0.03162 µM), 0.751; in the assay with RO-3306 + Pemetrexed (first compound 0.1 µM) it was 0.728; in the assay with RO-3306 + Pemetrexed (first compound 0.3162 µM) it was 0.726; with RO-3306 + Pemetrexed (first compound 1 µM), 0.549; in assay [1] (first compound 0.8 µM), 0.887. Also, the relative viability in assay [1] (first compound 2.53 µM) stood at 0.816; in assay [1] (first compound 8 µM) it was 0.924; in assay [2] (first compound 0.8 µM), 0.532; in assay [2] (first compound 2.53 µM), 0.594; in assay [2] (first compound 8 µM) it was 0.759; in assay [3] (first compound 0.8 µM), 0.319. Also, the relative viability in assay [3] (first compound 2.53 µM) was determined as 0.416; in assay [3] (first compound 8 µM), 0.429; in assay [4] (first compound 0.8 µM), 0.712; in assay [4] (first compound 2.53 µM), 0.741; in assay [4] (first compound 8 µM), 0.815.
In the case of NCI-H1563, the relative viability was found to be 0.873 in assay [5] (first compound 0.8 µM); 0.742 in assay [5] (first compound 2.53 µM); 0.733 in assay [5] (first compound 8 µM); 0.847 in the assay with RO-3306 + Pemetrexed (first compound 0.01 µM); 0.788 with RO-3306 + Pemetrexed (first compound 0.03162 µM); 0.818 with RO-3306 + Pemetrexed (first compound 0.1 µM). The relative viability was found to be 0.852 in the assay with RO-3306 + Pemetrexed (first compound 0.3162 µM); 0.692 in the assay with RO-3306 + Pemetrexed (first compound 1 µM); 0.737 in assay [1] (first compound 0.8 µM); 0.749 in assay [1] (first compound 2.53 µM); 0.75 in assay [1] (first compound 8 µM).
For the cell line NCI-H2342, the relative viability with RO-3306 + Pemetrexed (first compound 0.01 µM) came out at 0.71; in the assay with RO-3306 + Pemetrexed (first compound 0.03162 µM), 0.778; in the assay with RO-3306 + Pemetrexed (first compound 0.1 µM), 0.816; with RO-3306 + Pemetrexed (first compound 0.3162 µM) it was 0.817; in the assay with RO-3306 + Pemetrexed (first compound 1 µM) it was 0.759; in assay [1] (first compound 0.8 µM), 0.894. For the same cell line, the relative viability in assay [1] (first compound 2.53 µM) was determined as 0.841; in assay [1] (first compound 8 µM), 0.956; in assay [2] (first compound 0.8 µM), 0.8; in assay [2] (first compound 2.53 µM) it was 0.841; in assay [2] (first compound 8 µM), 0.741; in assay [3] (first compound 0.8 µM), 0.527. In addition, the relative viability was found to be 0.559 in assay [3] (first compound 2.53 µM); 0.477 in assay [3] (first compound 8 µM); 0.82 in assay [4] (first compound 0.8 µM); 0.837 in assay [4] (first compound 2.53 µM); 0.738 in assay [4] (first compound 8 µM).
Take COR-L 105: the relative viability in assay [5] (first compound 0.8 µM) was 0.876; in assay [5] (first compound 2.53 µM), 0.839; in assay [5] (first compound 8 µM), 0.661; in the assay with RO-3306 + Pemetrexed (first compound 0.01 µM), 1.25; with RO-3306 + Pemetrexed (first compound 0.03162 µM) it was 0.993; with RO-3306 + Pemetrexed (first compound 0.1 µM) it was 1.04. For the same cell line, the relative viability with RO-3306 + Pemetrexed (first compound 0.3162 µM) is 0.913; in the assay with RO-3306 + Pemetrexed (first compound 1 µM) it was 0.95; in assay [1] (first compound 0.8 µM), 1.34; in assay [1] (first compound 2.53 µM), 1.06; in assay [1] (first compound 8 µM) it was 0.988; in assay [2] (first compound 0.8 µM), 0.615. Also, the relative viability in assay [2] (first compound 2.53 µM) came to 0.706; in assay [2] (first compound 8 µM), 0.66; in assay [4] (first compound 0.8 µM), 0.63; in assay [4] (first compound 2.53 µM) it was 0.679; in assay [4] (first compound 8 µM) it was 0.649.
With NCI-H520, the relative viability in assay [5] (first compound 0.8 µM) is 0.939; in assay [5] (first compound 2.53 µM) it was 0.767; in assay [5] (first compound 8 µM) it was 0.855; with RO-3306 + Pemetrexed (first compound 0.01 µM), 0.811; in the assay with RO-3306 + Pemetrexed (first compound 0.03162 µM), 0.67; with RO-3306 + Pemetrexed (first compound 0.1 µM), 0.714. Further, the relative viability with RO-3306 + Pemetrexed (first compound 0.3162 µM) was found to be 0.646; with RO-3306 + Pemetrexed (first compound 1 µM), 0.727; in assay [1] (first compound 0.8 µM), 0.757; in assay [1] (first compound 2.53 µM), 0.908; in assay [1] (first compound 8 µM), 0.795; in assay [2] (first compound 0.8 µM), 0.847. For the same cell line, the relative viability in assay [2] (first compound 2.53 µM) came out at 0.678; in assay [2] (first compound 8 µM), 0.77; in assay [4] (first compound 0.8 µM) it was 0.457; in assay [4] (first compound 2.53 µM), 0.478; in assay [4] (first compound 8 µM), 0.493.
Regarding NCI-H1650, the relative viability in assay [5] (first compound 0.8 µM) was determined as 0.972; in assay [5] (first compound 2.53 µM), 0.972; in assay [5] (first compound 8 µM), 1.04; with RO-3306 + Pemetrexed (first compound 0.01 µM) it was 0.517; with RO-3306 + Pemetrexed (first compound 0.03162 µM) it was 0.351; in the assay with RO-3306 + Pemetrexed (first compound 0.1 µM), 0.324. Further, the relative viability was found to be 0.335 with RO-3306 + Pemetrexed (first compound 0.3162 µM); 0.38 in the assay with RO-3306 + Pemetrexed (first compound 1 µM); 0.332 in assay [1] (first compound 0.8 µM); 0.355 in assay [1] (first compound 2.53 µM); 0.397 in assay [1] (first compound 8 µM); 0.511 in assay [2] (first compound 0.8 µM). The relative viability in assay [2] (first compound 2.53 µM) is 0.496; in assay [2] (first compound 8 µM) it was 0.58; in assay [4] (first compound 0.8 µM) it was 0.463; in assay [4] (first compound 2.53 µM), 0.454; in assay [4] (first compound 8 µM), 0.465.
For NCI-H1793, the relative viability in the assay with RO-3306 + Pemetrexed (first compound 0.01 µM) was 0.971; in the assay with RO-3306 + Pemetrexed (first compound 0.1 µM), 0.771; with RO-3306 + Pemetrexed (first compound 0.3162 µM), 0.901; with RO-3306 + Pemetrexed (first compound 1 µM) it was 0.667; in assay [1] (first compound 0.8 µM), 0.792; in assay [1] (first compound 2.53 µM), 0.587. The relative viability is 0.806 in assay [1] (first compound 8 µM); 0.574 in assay [2] (first compound 0.8 µM); 0.539 in assay [2] (first compound 2.53 µM); 0.521 in assay [2] (first compound 8 µM); 0.409 in assay [3] (first compound 0.8 µM); 0.426 in assay [3] (first compound 2.53 µM). In addition, the relative viability in assay [3] (first compound 8 µM) stood at 0.246; in assay [4] (first compound 0.8 µM), 0.262; in assay [4] (first compound 2.53 µM), 0.384; in assay [4] (first compound 8 µM), 0.4.
As to SK-LU-1, the relative viability in assay [5] (first compound 0.8 µM) is 1.06; in assay [5] (first compound 2.53 µM), 0.748; in assay [5] (first compound 8 µM), 0.736; with RO-3306 + Pemetrexed (first compound 0.01 µM), 1.03; with RO-3306 + Pemetrexed (first compound 0.03162 µM), 0.918; with RO-3306 + Pemetrexed (first compound 0.1 µM) it was 0.963. The relative viability is 0.949 in the assay with RO-3306 + Pemetrexed (first compound 0.3162 µM); 0.897 in the assay with RO-3306 + Pemetrexed (first compound 1 µM); 1.05 in assay [1] (first compound 0.8 µM); 0.976 in assay [1] (first compound 2.53 µM); 1.01 in assay [1] (first compound 8 µM); 0.797 in assay [2] (first compound 0.8 µM). Besides, the relative viability is 0.705 in assay [2] (first compound 2.53 µM); 0.727 in assay [2] (first compound 8 µM); 0.669 in assay [4] (first compound 0.8 µM); 0.63 in assay [4] (first compound 2.53 µM); 0.703 in assay [4] (first compound 8 µM).
On to SW 900, for which the relative viability in the assay with RO-3306 + Pemetrexed (first compound 0.01 µM) was found to be 0.487; with RO-3306 + Pemetrexed (first compound 0.03162 µM), 0.383; with RO-3306 + Pemetrexed (first compound 0.1 µM), 0.464; with RO-3306 + Pemetrexed (first compound 0.3162 µM), 0.488; with RO-3306 + Pemetrexed (first compound 1 µM), 0.411; in assay [1] (first compound 0.8 µM), 0.581. In addition, the relative viability in assay [1] (first compound 2.53 µM) was determined as 0.478; in assay [1] (first compound 8 µM), 0.538; in assay [2] (first compound 0.8 µM) it was 0.498; in assay [2] (first compound 2.53 µM), 0.498; in assay [2] (first compound 8 µM), 0.699; in assay [3] (first compound 0.8 µM) it was 0.609. The relative viability was 0.53 in assay [3] (first compound 2.53 µM); 0.709 in assay [3] (first compound 8 µM); 0.417 in assay [4] (first compound 0.8 µM); 0.427 in assay [4] (first compound 2.53 µM); 0.429 in assay [4] (first compound 8 µM).
As to EBC-1, the relative viability in assay [5] (first compound 0.8 µM) was 0.234; in assay [5] (first compound 2.53 µM) it was 0.29; in assay [5] (first compound 8 µM), 0.293.
